Test results as given in PMC10440746, “Biosynthesis of 3,6-Dideoxy-heptoses for the Capsular Polysaccharides of Campylobacter jejuni” (Biochemistry, 2023).

Legend:
C3-dehydratase (HS:5) = tested on: T1, C3-dehydratase (HS:5); experiment: coupled glutamate dehydrogenase assay, NADPH oxidation at […] nm; format: biochemical, Campylobacter; details: pH 7.5, 25 °C; 0.2 mM PLP, 4.0 mM L-glutamate; 50 mM ammonium bicarbonate; apparent
T1 construct: full length, N-terminal 21-residue His6 tag (pET-28a), codon-optimised gene, E. coli BL21(DE3)

C5-epimerase (HS:5) = details: pH 7.5, 25 °C; 50 mM HEPES/KOH; 300 μM NADPH; apparent

Row | SMILES | Km (C3-dehydratase (HS:5)) [µM] | Km (C5-epimerase (HS:5)) [µM]
1 | Nc1nc2c(ncn2[C@@H]2O[C@H](COP(=O)(O)OP(=O)(O)O[C@H]3O[C@H](CCO)C(=O)[C@H](O)[C@@H]3O)[C@@H](O)[C@H]2O)c(=O)[nH]1 [compound 5, GDP-6-deoxy-4-keto-α-D-lyxo-heptose] | 840 ± 60 | –
2 | Nc1nc2c(ncn2[C@@H]2O[C@H](COP(=O)(O)OP(=O)(O)O[C@H]3O[C@H](CCO)C(=O)C[C@@H]3O)[C@@H](O)[C@H]2O)c(=O)[nH]1 [compound 8, GDP-3,6-dideoxy-4-keto-α-D-threo-heptose] | – | 480 ± 80
